From patent US9908877B2, “Imidazo[1,5-a]pyridinium ion fluorophores, and methods of making and using the same” (Indiana University Research and Technology Corporation, priority 2013, dated 2018) come the findings set out here.

Holding throughout (format): physicochemical
Series [1] is described as follows: Fluorescence quantum yield, integrating sphere. As to the method:
Method for Determining Quantum Yield
Quantum yield is determined using an integrating sphere attached to a QM-4-CW Spectrofluorometer using FeliX32 software (Photon Technology International).
(§1) The compounds were analyzed at 298° K according to the Method for Obtaining Ultraviolet-Visible Light Spectrum (30 μM acetonitrile) to obtain the maximum absorbance wavelength (λabs,max), Method for Obtaining Fluorescence Emission Spectrum (30 μM acetonitrile) to obtain the maximum emission wavelength (λem,max) and Method for Determining Quantum Yield (ΦF) (30 μM acetonitrile) at the concentration, in the solvent, and with the counter ion indicated in Table 1. The compounds included hydrogen at each R group that is not otherwise specified.
(§2) Compounds 6, 7, 9, 11-14 and 21 were analyzed according to: the Method for Obtaining Ultraviolet-Visible Light Spectrum to obtain the maximum absorbance wavelength (λabs,max), the Method for Obtaining Fluorescence Emission Spectrum to obtain the maximum emission wavelength (λem,max), and the Method for Determining Quantum Yield (ΦF) in the solvent and with the counter ion indicated in Table 3.

The nature of series [2]: Fluorescence response to pH in buffered water. The conditions noted are these: for fluorescence emission in water at pH 7.5: water pH 7.5. The protocol:
Stock solutions of each compound (having a concentration of from 1-5 mM) were prepared by dissolving the corresponding salts of the compounds in methanol or 1V, N-dimethylformamide, and then diluting the same with acetonitrile or buffered water having a pH of from 2.5 to 7.5 derived from 0.2 M […] and 0.1 M citric acid, to achieve a sample solution having a compound concentration of 30.0 μM.
The emission spectrum for each sample was obtained. The results are illustrated by the plot in FIG. 2A.
The emission spectrum for each sample was obtained. […] The results are illustrated in the plot of FIG. 2B.
The fluorescence emission spectrum of Compound 8 in water having a pH of 2.5 was also obtained and is illustrated by the curved line with a peak at 360 nm in FIG. 5B.
Compounds 10, 11, and 12 were each individually added, at a concentration of 30 μM, to water having a pH=7.5 and the emission spectra of each were obtained. […] As the pH was decreased from 7.5 to 2.5 in 0.5 pH unit increments, fluorescence emission at 600 nm remained relatively nonexistent and the intensity of the fluorescence emission at 400 nm increased in correlation to the decrease in pH. FIG. 8A illustrates the emission properties of Compound 12.

A short description of series [3]: Ultraviolet-visible light spectrum (maximum absorbance wavelength). The protocol:
Method for Obtaining an Ultraviolet-Visible Light Spectrum
Ultraviolet-visible (UV-Vis) Light spectra are obtained and recorded on an Agilent 8453 spectrophotometer using ChemStation software (Agilent Technologies, Inc., Santa Clara, Calif.).
as §1, §2

The nature of series [4]: Fluorescence response to hydrophobic environment (acetonitrile in water, SDS). The protocol: Compound 12 was placed in water and the intensity of its fluorescence emission at 600 nm was monitored as the concentration of acetonitrile was increased from 0 volume to volume (v/v) % to 100 v/v % in increments of 10 v/v %.
Compound 12 was added to an aqueous solution of sodium dodecylsulfate (SDS) and monitored for fluorescence emission at 600 nm.

Series [5] in a line: Fluorescence emission spectrum (maximum emission wavelength). As to the method: Method for Obtaining a Fluorescence Emission Spectrum
Fluorescence emission spectra are obtained and recorded on a QM-4-CW Spectrofluorometer using FeliX32 software (Photon Technology International, Inc., Birmingham, N.J.).
as §1, §2

Series [6] in a line: Fluorescence response to trifluoroacetic acid / DBU in acetonitrile. The protocol:
A 30 μM solution of Compound 6 in acetonitrile was prepared by adding 99 μL of a stock solution of 3.04 mM Compound 6 in methanol to 10 mL of acetonitrile. An initial fluorescence emission spectrum of the solution was obtained and is illustrated by curve (i) in FIG. 1A.
A series of approximately 13.8 μL aliquots of trifluoroacetic acid (TFA) were then added to the 30 μM solution of Compound 6 until a total concentration of 60.0 mM of TFA was present in the solution. (The total amount of TFA present in the solution corresponded to 2000 equivalents of acid per equivalent of Compound 6.) The fluorescence emission spectrum of the resulting solution was obtained and is illustrated by curve (ii) in FIG. 1A.
A base, i.e., 1,8-diazabicyclo[5.4.0]undec-7-ene (DBU), was then added to the solution to neutralize the acid until a concentration of 90 mM DBU was obtained. The fluorescence emission spectrum of the resulting solution was obtained and is illustrated by curve (iii) in FIG. 1A. The fluorescence emission intensity at λem,max=565 nm increased as the amount of base present in the system increased and the fluorescence emission intensity at λem,max=405 nm decreased as the amount of base present in the system increased, which reflected Compound 6's ratiometric response to the changing base concentration in acetonitrile.
A 30 μM solution of Compound 7 in acetonitrile was prepared by adding 84 μL of a stock solution of 3.58 mM Compound 7 in methanol to 10 mL of acetonitrile. The emission spectrum of the solution was then obtained and is illustrated by curve (i) in FIG. 1B.
A series of approximately 13.8 μL aliquots of TFA were then added to the 30 μM solution of Compound 7 until a total concentration of 60.0 mM TFA was present in the solution (which corresponded to 2000 equivalents of acid per equivalent of Compound 7). The fluorescence emission spectrum of the solution was obtained and is illustrated by curve (ii) in FIG. 1B.
After the 60 mM TFA concentration was achieved, DBU was gradually added to the solution until a total concentration of 90 mM DBU was present in the solution. The fluorescence spectrum of the solution was obtained and is illustrated by curve (iii) in FIG. 1B.
An aliquot of 50 μL of trifluoroacetic acid was then added to the system, and the fluorescence emission spectrum was obtained and is illustrated by the curved line with a peak at 360 nm in FIG. 6A.
Compound 10 was placed in neat acetonitrile and its emission spectrum was monitored as trifluoroacetic acid was added to the acetonitrile in incremental amounts to achieve a solution that included an acid concentration ranging from 0 to 0.2 M. After each acid addition the sample was excited with radiation of a wavelength 340 nm, and its fluorescence emission spectrum was monitored. The results are illustrated in FIG. 7A.
The solution of Compound 10 in acetonitrile was titrated with trifluoroacetic acid (TFA). […] The first stage, which occurred with the addition of the initial aliquots of TFA, was a slight increase intensity at 580 nm, as illustrated in FIG. 7A. As more TFA was added to the system, a second transition occurred in which the emission at 580 nm began to decrease and as the emission at 400 nm began to increase, as illustrated in FIG. 7B. A plot of the emission intensity at 580 nm versus pH and at 400 nm versus pH is illustrated in FIG. 7C.
Compounds 10, 11, and 12 were then each individually added, at a concentration of 30 μM, to acetonitrile and the emission spectrum of each was monitored. The compounds emitted at 600 nm with an intensity of about 7.57×10^5 arbitrary units (a.u.) in neat acetonitrile. […] FIG. 8B illustrates the emission properties of Compound 12.

A short description of series [7]: Fluorescence response to pH in buffered water. The conditions noted are these: 10 μM in water, pH = 7.5.
Series [8] is described as follows: pKa from fluorescence intensity versus pH. The conditions noted are these: non-linear regression of fluorescence intensity versus pH, buffered water pH 2.5 to 7.5. As to the method: Method for Determining pKa
A pKa value is determined by plotting fluorescence intensity (Imax) at emission maxima against pH and fitting the result to the non-linear expression in equation (1) (i.e., eq.(1)). In eq (1), a and b are the molar coefficient of the acid (HA) and base (A^−) form, respectively, and c is the combined overall concentration of the acid and base form. i.e., c=[HA]+[A^−].

[9] abbreviates: 30 μM acetonitrile, 298 K, Table 1.

The term pKa denotes the pH at which an ionisable group is half protonated. Higher therefore signals a group that holds its proton tightly.

Regarding `CCN(CC)c1ccc(-n2cc3cccc(-c4cn(-c5ccc(C)cc5)nn4)[n+]3c2)cc1.[Cl-]` [Compound 12, 2-(4-(diethylamino)phenyl)-5-(1-(p-tolyl)-1H-1,2,3-triazol-4-yl)-2H-imidazo[1,5-a]pyridin-4-ium chloride], the “[…]F (quantum yield)” value in series [1] (H2O pH = 2.2, 30 μM) was found to be 66%; in series [1] (H2O pH = 7.5, 30 μM) it was 0%; in series [1] (MeCN + 50 μL TFA, 30 μM), 57%; in series [1] (MeCN, 30 μM), 30%. In addition, the “fluorescence emission in water at pH 7.5” value in series [2] is reported as “essentially no fluorescence emission”. Also, the “λabs, max Abs” value came to 340 nm in series [3] (H2O pH = 2.2, 30 μM); 340 nm in series [3] (H2O pH = 7.5, 30 μM); 340 nm in series [3] (MeCN + 50 μL TFA, 30 μM); 340 nm in series [3] (MeCN, 30 μM). The “fluorescence intensity at 600 nm” value in series [4] (100 v/v % acetonitrile) is recorded as 6.48×10^5 a.u; in series [4] (water, 0 v/v % acetonitrile), 7.81×10^3 a.u. For the same molecule, the “λem, max Em” value in series [5] (H2O pH = 2.2, 30 μM) came out at 400 nm; in series [5] (MeCN + 50 μL TFA, 30 μM), 400 nm; in series [5] (MeCN, 30 μM) it was 600 nm. Besides, the “emission intensity at 400 nm” value in series [6] (30 μM in acetonitrile + 50 μL trifluoroacetic acid) is 1.34×10^6 a.u. Besides, in series [6] (30 μM in neat acetonitrile), the “emission intensity at 600 nm” value is given as “about 7.57×10^5 arbitrary units (a.u.)”. In series [6] (30 μM in neat acetonitrile), this molecule had an emission wavelength of 600 nm. In series [6] (acetonitrile + 50 μL trifluoroacetic acid), the “emission wavelength λem,max” value turned out to be 400 nm.
Turning to `CCN(CC)c1ccc(-n2cc3cccc[n+]3c2)cc1` [Compound 2, 2-(4-(diethylamino)phenyl)-2H-imidazo[1,5-a]pyridin-4-ium hexafluorophosphate], the “ΦF (quantum yield)” value in series [1] (setting [9]) stood at 30%. For the same molecule, the “fluorescence λem” value is on record as 360-375 nm in series [2] (Example 13B: pH decreased to 2.5) and 360-375 nm in series [2] (water, pH 2.5). The “emission maxima λem” value in series [2] (Example 13B: printed 'neat acetonitrile having a pH of 7.5' / 'pH=7.5 in water') and in series [7] was 550 nm each time. In addition, in series [3] (setting [9]), the “λabs, max Abs” value was 330 nm. For the same molecule, the “λem, max Em” value in series [5] (setting [9]) is 515 nm.
As to `CCN(CC)c1ccc(-n2c[n+]3ccccc3c2-c2ccc(OC)cc2)cc1.[Cl-]` [Compound 7, 2-(4-(diethylamino)phenyl)-1-(4-methoxyphenyl)-2H-imidazo[1,5-a]pyridin-4-ium chloride], the “ΦF (quantum yield)” value in series [1] (30 μM in acetonitrile with 60.0 mM TFA) was determined as 42%. The “quantum yield (ΦF)” value in series [1] (30 μM in acetonitrile, no acid, excited at 340 nm) turned out to be 0.06%. Moreover, the “[…]F (quantum yield)” value in series [1] (H2O pH = 2.5, 30 μM) is given as 42%; in series [1] (H2O pH = 7.5, 30 μM) it was 0%; in series [1] (MeCN + 13.8 uL TFA, 30 μM), 57%; in series [1] (MeCN, 30 μM), 0%. Also, the “λem,max of the emission that increases as pH decreases” value in series [2] (buffered water, 298 K, pH from 7.5 to 2.5) is on record as 450 nm. In series [2], the “fluorescence emission in water at pH 7.5” value is recorded as “essentially non-emissive”. Moreover, the “λabs, max Abs” value in series [3] (H2O pH = 2.5, 30 μM) came out at 340 nm; in series [3] (H2O pH = 7.5, 30 μM), 340 nm; in series [3] (MeCN + 13.8 uL TFA, 30 μM), 340 nm; in series [3] (MeCN, 30 μM), 340 nm. Further, the “λem, max Em” value stood at 450 nm in series [5] (H2O pH = 2.5, 30 μM) and 450 nm in series [5] (MeCN + 13.8 uL TFA, 30 μM). In series [8], the pKa was found to be 4.4. For the same molecule, the “increase in cyan fluorescent intensity” value in series [6] (30 μM in acetonitrile after addition of 60.0 mM TFA) is given as “approximately 700 fold”. Also, the “λem,max (fluorescence emission)” value in series [6] (30 μM in acetonitrile in the presence of trifluoroacetic acid (60.0 mM TFA)) worked out at 450 nm. The “fluorescence emission in neat acetonitrile” value in series [6] (acetonitrile without acid) is on record as “essentially non-emissive”. Besides, the “fluorescence intensity after base” value in series [6] (acetonitrile, 60 mM TFA then 90 mM DBU) is reported as “returned to zero”.
